From US10131652B2, “Pyrimidinyloxy benzene derivatives as herbicides” (E. I. DU PONT DE NEMOURS AND COMPANY, priority 2014, dated 2018)

What was measured:
Format in all cases: in vivo
[1] = system: barnyardgrass (Echinochloa crus-galli); test: Test C flooded paddy test plant response; conditions: Flood, 250 g ai/ha; scale of 0 to 100 where 0 is no effect and 100 is complete control; 13 to 15 days
Method in brief: (§1)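 Scale 0 (no effect) to 100 (complete control), assigned visually versus controls after 13–15 d greenhouse. Application: directly to paddy water, 3 cm flood depth kept constant, 2-leaf stage.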

[2] = system: ducksalad (Heteranthera limosa); test: Test C flooded paddy test plant response; conditions: Flood, 250 g ai/ha; scale of 0 to 100 where 0 is no effect and 100 is complete control; 13 to 15 days
Method in brief: as §1

[3] = system: small-flower umbrella sedge (Cyperus difformis); test: Test C flooded paddy test plant response; conditions: Flood, 250 g ai/ha; scale of 0 to 100 where 0 is no effect and 100 is complete control; 13 to 15 days
Method in brief: as §1

rice (Oryza sativa) = test: Test C flooded paddy test plant response; conditions: Flood, 250 g ai/ha; scale of 0 to 100 where 0 is no effect and 100 is complete control; 13 to 15 days
Method in brief: as §1

corn (Zea mays) = test: Test B pre-/postemergence plant response
Method in brief: (§2)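 Steps: plant seeds in loam soil–sand mix; spray soil preemergence, and in parallel spray 2–10 cm one- to two-leaf plants postemergence; hold ~10 days in greenhouse; visually rate injury against untreated controls (0 = no effect, 100 = complete control).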

[4] = system: barnyardgrass (Echinochloa crus-galli); test: Test B pre-/postemergence plant response
Method in brief: as §2

[5] = system: giant foxtail (Setaria faberii); test: Test B pre-/postemergence plant response
Method in brief: as §2

[6] = system: wheat (Triticum aestivum); test: Test B pre-/postemergence plant response
Method in brief: as §2

[7] = system: velvetleaf (Abutilon theophrasti); test: Test B pre-/postemergence plant response
Method in brief: as §2

[8] = system: pigweed (Amaranthus retroflexus); test: Test B pre-/postemergence plant response
Method in brief: as §2

[9] = system: large (Lg) crabgrass (Digitaria sanguinalis); test: Test B pre-/postemergence plant response
Method in brief: as §2

[10] = system: blackgrass (Alopecurus myosuroides); test: Test B postemergence plant response
Method in brief: (§3)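 Visual injury rating, 0–100 (0 = no effect, 100 = complete control), vs untreated controls ~10 days after postemergence spray; greenhouse; potted loam soil/sand; plants 2–10 cm, 1–2 leaf stage.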

[11] = system: galium (catchweed bedstraw, Galium aparine); test: Test B postemergence plant response
Method in brief: as §3

kochia (Kochia scoparia) = test: Test B pre-/postemergence plant response
Method in brief: as §2

[12] = system: ragweed (common ragweed, Ambrosia elatior); test: Test B pre-/postemergence plant response
Method in brief: as §2

[13] = system: Italian ryegrass (Lolium multiflorum); test: Test B pre-/postemergence plant response
Method in brief: as §2

[14] = 125 g ai/ha, postemergence, 0 to 100 scale, 0 no effect, 100 complete control
[15] = Postemergence, 500 g ai/ha, 0 to 100 scale (0 no effect, 100 complete control)
[16] = Preemergence, 125 g ai/ha, 0 to 100 scale where 0 is no effect and 100 is complete control
[17] = Preemergence, 500 g ai/ha, 0 to 100 scale (0 no effect, 100 complete control)
[18] = Postemergence, 31 g ai/ha, 0 to 100 scale (0 no effect, 100 complete control)
[19] = 31 g ai/ha, Preemergence, 0 to 100 scale where 0 is no effect and 100 is complete control
[20] = Preemergence, 125 g ai/ha, 0 to 100 scale (0 no effect, 100 complete control)
[21] = Preemergence, 500 g ai/ha, 0 to 100 scale where 0 is no effect and 100 is complete control

Clc1cnc(Oc2ccccc2-c2cccc(Cl)n2)nc1 [Compound 16]
0: Barnyardgrass plant response rating [1] | Ducksalad plant response rating [2] | Sedge, Umbrella plant response rating [3] | Rice plant response rating (rice (Oryza sativa)) | Plant response rating, Corn (corn (Zea mays); [14]) | Plant response rating, Corn (corn (Zea mays); [15]) | Plant response rating, Corn (corn (Zea mays); [16]) | Plant response rating, Corn (corn (Zea mays); [17]) | Plant response rating, Barnyardgrass [4, 14] | Plant response rating, Barnyardgrass [4, 15] | Plant response rating, Barnyardgrass [4, 16] | Plant response rating, Barnyardgrass [4, 17] | Plant response rating, Foxtail, Giant [5, 14] | Plant response rating, Foxtail, Giant [5, 15] | Plant response rating, Foxtail, Giant [5, 16] | Plant response rating, Wheat [6, 14] | Plant response rating, Wheat [6, 15] | Plant response rating, Wheat [6, 16] | Plant response rating, Wheat [6, 17] | Plant response rating, Velvetleaf [7, 14] | Plant response rating, Velvetleaf [7, 16] | Plant response rating, Pigweed [8, 14] | Plant response rating, Pigweed [8, 16] | Plant response rating, Crabgrass, Large [9, 14] | Plant response rating, Crabgrass, Large [9, 15] | Plant response rating, Crabgrass, Large [9, 16]
10: Plant response rating, Foxtail, Giant [5, 17] | Plant response rating, Crabgrass, Large [9, 17]
20: Plant response rating, Velvetleaf [7, 15] | Plant response rating, Velvetleaf [7, 17] | Plant response rating, Pigweed [8, 17]
30: Plant response rating, Pigweed [8, 15]

Cc1csc(-c2c(C#N)cccc2Oc2ncc(Cl)cn2)c1 [Compound 238]
80: Plant response rating, Kochia (kochia (Kochia scoparia); [14])
45: Ducksalad plant response rating [2]
0: Plant response rating, Blackgrass [10, 14] | Plant response rating, Blackgrass [10, 18] | Plant response rating, Galium [11, 18] | Plant response rating, Kochia (kochia (Kochia scoparia); [19]) | Kochia plant response rating (kochia (Kochia scoparia); [20]) | Plant response rating, Corn (corn (Zea mays); [18]) | Plant response rating, Barnyardgrass [4, 19] | Plant response rating, Barnyardgrass [4, 18] | Plant response rating, Foxtail, Giant [5, 19] | Plant response rating, Foxtail, Giant [5, 18] | Plant response rating, Wheat [6, 14] | Plant response rating, Wheat [6, 18] | Plant response rating, Ragweed [12, 19] | Plant response rating, Ragweed [12, 14] | Plant response rating, Ragweed [12, 18] | Ragweed plant response rating [12, 20] | Plant response rating, Pigweed [8, 19] | Plant response rating, Ryegrass, Italian [13, 19] | Plant response rating, Ryegrass, Italian [13, 14] | Plant response rating, Ryegrass, Italian [13, 18] | Ryegrass, Italian plant response rating [13, 20]
65: Sedge, Umbrella plant response rating [3]
40: Plant response rating, Galium [11, 14] | Barnyardgrass plant response rating [4, 20]
20: Barnyardgrass plant response rating [1] | Plant response rating, Kochia (kochia (Kochia scoparia); [18]) | Plant response rating, Corn (corn (Zea mays); [14]) | Foxtail, Giant plant response rating [5, 20] | Plant response rating, Pigweed [8, 14]
15: Rice plant response rating (rice (Oryza sativa))
10: Plant response rating, Foxtail, Giant [5, 14] | Plant response rating, Pigweed [8, 18] | Pigweed plant response rating [8, 20]
30: Plant response rating, Barnyardgrass [4, 14]

FC(F)(F)Cn1cnc(-c2ccccc2Oc2ncc(Cl)cn2)c1 [Compound 161]
0: Plant response rating, Blackgrass [10, 14] | Plant response rating, Blackgrass [10, 15] | Plant response rating, Galium [11, 14] | Plant response rating, Galium [11, 15] | Barnyardgrass plant response rating [1] | Ducksalad plant response rating [2] | Sedge, Umbrella plant response rating [3] | Rice plant response rating (rice (Oryza sativa)) | Plant response rating, Kochia (kochia (Kochia scoparia); [14]) | Plant response rating, Kochia (kochia (Kochia scoparia); [15]) | Kochia plant response rating (kochia (Kochia scoparia); [20]) | Plant response rating, Kochia (kochia (Kochia scoparia); [21]) | Plant response rating, Corn (corn (Zea mays); [14]) | Plant response rating, Corn (corn (Zea mays); [15]) | Plant response rating, Barnyardgrass [4, 14] | Plant response rating, Barnyardgrass [4, 15] | Barnyardgrass plant response rating [4, 20] | Plant response rating, Barnyardgrass [4, 21] | Plant response rating, Foxtail, Giant [5, 14] | Plant response rating, Foxtail, Giant [5, 15] | Foxtail, Giant plant response rating [5, 20] | Plant response rating, Foxtail, Giant [5, 21] | Plant response rating, Wheat [6, 14] | Plant response rating, Wheat [6, 15] | Plant response rating, Ragweed [12, 14] | Plant response rating, Ragweed [12, 15] | Ragweed plant response rating [12, 20] | Plant response rating, Ragweed [12, 21] | Plant response rating, Pigweed [8, 14] | Plant response rating, Pigweed [8, 15] | Pigweed plant response rating [8, 20] | Plant response rating, Pigweed [8, 21] | Plant response rating, Ryegrass, Italian [13, 14] | Plant response rating, Ryegrass, Italian [13, 15] | Ryegrass, Italian plant response rating [13, 20] | Plant response rating, Ryegrass, Italian [13, 21]

C=C(C)c1cc(-c2ccccc2Oc2ncc(Cl)cn2)on1 [Compound 196]
30: Barnyardgrass plant response rating [1]
0: Plant response rating, Blackgrass [10, 14] | Plant response rating, Blackgrass [10, 18] | Rice plant response rating (rice (Oryza sativa)) | Plant response rating, Kochia (kochia (Kochia scoparia); [19]) | Plant response rating, Kochia (kochia (Kochia scoparia); [18]) | Kochia plant response rating (kochia (Kochia scoparia); [20]) | Plant response rating, Corn (corn (Zea mays); [14]) | Plant response rating, Corn (corn (Zea mays); [18]) | Plant response rating, Barnyardgrass [4, 19] | Plant response rating, Barnyardgrass [4, 18] | Plant response rating, Foxtail, Giant [5, 19] | Plant response rating, Foxtail, Giant [5, 18] | Plant response rating, Wheat [6, 14] | Plant response rating, Wheat [6, 18] | Plant response rating, Ragweed [12, 19] | Ragweed plant response rating [12, 20] | Plant response rating, Pigweed [8, 19] | Plant response rating, Ryegrass, Italian [13, 19] | Plant response rating, Ryegrass, Italian [13, 14] | Plant response rating, Ryegrass, Italian [13, 18] | Ryegrass, Italian plant response rating [13, 20]
60: Plant response rating, Galium [11, 18] | Plant response rating, Pigweed [8, 14]
10: Plant response rating, Barnyardgrass [4, 14] | Barnyardgrass plant response rating [4, 20] | Plant response rating, Foxtail, Giant [5, 14] | Plant response rating, Ragweed [12, 18] | Pigweed plant response rating [8, 20]
70: Sedge, Umbrella plant response rating [3]
55: Ducksalad plant response rating [2]
40: Plant response rating, Kochia (kochia (Kochia scoparia); [14])
100: Plant response rating, Galium [11, 14]
20: Foxtail, Giant plant response rating [5, 20] | Plant response rating, Ragweed [12, 14] | Plant response rating, Pigweed [8, 18]
